Assay results from US6657061B2, “Polymorphic forms of 6-[4-1(1-cyclohexyl-1H-tetrazol-5-yl)butoxy]-3,4-dihydro-2(1H)-quinolinone” (priority 2001, dated 2003).

What was measured:
[1] = Form A as prepared by the procedures of the '479 patent; cited from earlier work
[2] = Form A as prepared by the procedures of the '479 patent; cited from earlier work; remark: listed apart in the source
[3] = DSC thermogram of combined Forms A, B and C; relative solubility inferred from melting points; assay type: physicochemical; details: suggested by the lower DSC melting point (weaker crystal packing forces), not measured directly
Source text: Characterization of Form A of cilostazol, Form B of cilostazol, and Form C of cilostazol was further completed using DSC thermograms, shown in FIGS. 3, 4, and 5, respectively, with DSC thermograms for combinations of Form A and Form B; Form B and Form C; and Forms A, B, and C are shown in FIGS. 6, 7, and 8 respectively. DSC data were generated using a Mettler-Toledo DSC 821^e (Columbus, Ohio) with a Julabo FT900 intercooler chiller (Julabo Company; Allentown, Pa.). In general, samples were analyzed in a vented, sealed aluminum pan. Because the endothermic peak may vary depending upon the rate of heating and the calibration and precision of the instrument, with the amount of peak variation dependent upon the heating rate used, all thermograms included herein were run under the same, consistent conditions: heating at 10° C. per minute under a nitrogen purge at 40 mL/minute.
FIG. 8 illustrates a DSC thermogram for the combination of Form A, Form B and Form C having a second heating cycle with a maximum temperature of about 110° C. with a holding time of about 30 minutes. The peaks in the third heating cycle show a Form A to Form B to Form C peak area ratio of approximately 8:2:1, respectively, with the relative amount of Form A, Form B and Form C further variable on the heat of enthalpy of each polymorphic form.

[4] = stability of the polymorphic form (statement only); assay type: physicochemical; details: solid form; test conditions not given

SMILES | aqueous solubility [1] | bioavailability [2] | solubility relative to Form A [3] | stability of polymorph [4]
O=C1CCc2cc(OCCCCc3nnnn3C3CCCCC3)ccc2N1 [Form A, 6-[4-(1-cyclohexyl-1H-tetrazol-5-yl)butoxy]-3,4-dihydro-2(1H)-quinolinone] | low | low |  | 
O=C1CCc2cc(OCCCCc3nnnn3C3CCCCC3)ccc2N1 [Form B, 6-[4-(1-cyclohexyl-1H-tetrazol-5-yl)butoxy]-3,4-dihydro-2(1H)-quinolinone] |  |  | more soluble than Form A | stable
